SMILES strings stand for the structures.

The target of the assay is Shp2 (Homo sapiens (Human), UniProt Q06124). Nature of the assay: in vitro phosphotyrosine phosphatase activity (DiFMUP) assay. The note with it: mean ± spread over n tests. It counts as biochemical. The protocol: All reagents were purchased from commercial suppliers and used without further purification. Melting points were determined using a Barnstead international melting point apparatus and remain uncorrected. ^1H NMR spectra were recorded on a Varian Mercury 400 MHz spectrometer with CDCl3 or DMSO-d6 as the solvent. ^13C NMR spectra are recorded at 100 MHz. All coupling constants are measured in Hertz (Hz) and the chemical shifts (δH and δC) are quoted in parts per million (ppm) relative to TMS (δ0), which was used as the internal standard. High resolution mass spectroscopy was carried out on an Agilent 6210 LC/MS (ESI-TOF). Microwave reactions were performed in CEM 908005 model and Biotage initiator 8 machines. HPLC analysis was performed using a JASCO HPLC system equipped with a PU-2089 Plus quaternary gradient pump and a UV-2075 Plus UV-VIS detector, using an Alitech Kromasil C-18 column (150×4.6 mm, 5 μm). Thin layer chromatography was performed using silica gel 60 F254 plates (Fisher), with observation under UV when necessary. Anhydrous solvents (acetonitrile, dimethyl formamide, ethanol, isopropanol, methanol and tetrahydrofuran) were used as purchased from Aldrich. HPLC grade solvents (methanol, acetonitrile and water) were purchased from Burdick and Jackson for HPLC and mass analysis.
Shp2, sequence (Q06124 whole entry): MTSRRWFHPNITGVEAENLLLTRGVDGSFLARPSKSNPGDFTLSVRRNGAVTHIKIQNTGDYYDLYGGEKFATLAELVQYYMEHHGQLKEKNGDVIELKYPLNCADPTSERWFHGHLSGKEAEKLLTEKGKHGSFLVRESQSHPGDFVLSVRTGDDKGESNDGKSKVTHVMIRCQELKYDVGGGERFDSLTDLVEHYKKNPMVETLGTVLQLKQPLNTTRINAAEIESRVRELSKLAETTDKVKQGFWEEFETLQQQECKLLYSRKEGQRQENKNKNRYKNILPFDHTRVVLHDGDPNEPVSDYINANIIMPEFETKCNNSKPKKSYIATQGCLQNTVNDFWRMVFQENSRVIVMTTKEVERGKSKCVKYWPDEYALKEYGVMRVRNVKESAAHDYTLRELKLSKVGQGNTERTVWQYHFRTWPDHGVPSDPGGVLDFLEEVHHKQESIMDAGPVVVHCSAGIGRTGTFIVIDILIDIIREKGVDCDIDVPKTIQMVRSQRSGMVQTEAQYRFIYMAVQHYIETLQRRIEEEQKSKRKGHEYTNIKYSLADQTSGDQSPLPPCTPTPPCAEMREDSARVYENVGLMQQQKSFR
As usually defined, the IC50 is the concentration that gives 50% inhibition. A high value points to weaker potency in that assay. Regarding `O=C(c1ccc(Cl)cc1)N1CCc2cc(S(=O)(=O)N3CCN(c4cccc(Cl)c4)CC3)ccc21` [JF021, (4-Chlorophenyl)(5-(4-(3-chlorophenyl)piperazin-1-ylsulfonyl)indolin-1-yl)methanone], half-maximal inhibition (IC50) required 10.4 ± 2 µM.

As to `COc1cccc(C(=O)N2CCc3cc(S(=O)(=O)N4CCN(c5cccc(Cl)c5)CC4)ccc32)c1` [JHE-02-035A, (5-(4-(3-chlorophenyl)piperazin-1-ylsulfonyl)indolin-1-yl)(3-methoxyphenyl)methanone], the IC50 came to 8.1 ± 0.8 µM.

In the case of `COC(=O)c1ccccc1NC(=O)N1CCc2cc(S(=O)(=O)N3CCN(c4cccc(Cl)c4)CC3)ccc21` [JHE-02-015A, Methyl 2-(5-(4-(3-chlorophenyl)piperazin-1-ylsulfonyl)indoline-1-carboxamido)benzoate], the 50% inhibitory concentration (IC50) was determined as 14.3 ± 4.1 µM.

The molecule `CCC(C)C(NC(=O)N1CCc2cc(S(=O)(=O)N3CCN(c4cccc(Cl)c4)CC3)ccc21)C(=O)O` (stereo not shown) [JHE-02-038, 2-(5-(4-(3-Chlorophenyl)piperazin-1-ylsulfonyl)indoline-1-carboxamido)-3-methylpentanoic acid] showed a half-inhibitory concentration (IC50) of 15.5 ± 7.5 µM.

In the case of `O=C(C1CC1)N1CCc2cc(S(=O)(=O)N3CCN(c4cccc(Cl)c4)CC3)ccc21` [JF027, (5-(4-(3-Chlorophenyl)piperazin-1-ylsulfonyl)indolin-1-yl)(cyclopropyl)methanone], it took 8.5 ± 2 µM to reach half-maximal inhibition (IC50).

`O=C(Cc1ccccc1)N1CCc2cc(S(=O)(=O)N3CCN(c4cccc(Cl)c4)CC3)ccc21` [JF031, 1-(5-(4-(3-Chlorophenyl)piperazin-1-ylsulfonyl)indolin-1-yl)-2-phenyleth anone]: the concentration for half-maximal inhibition (IC50) came to 22.8 ± 4.5 µM.

`O=C(c1cccc(Cl)c1)N1CCc2cc(S(=O)(=O)N3CCN(c4cccc(Cl)c4)CC3)ccc21` [JF020, (3-Chlorophenyl)(5-(4-(3-chlorophenyl)piperazin-1-ylsulfonyl)indolin-1-yl)methanone] had an IC50 of 5.7 ± 3.9 µM.

Regarding `O=C(O)CCNC(=O)N1CCc2cc(S(=O)(=O)N3CCN(c4cccc(Cl)c4)CC3)ccc21` [JHE-02-017A, 3-(5-(4-(3-Chlorophenyl)piperazin-1-ylsulfonyl)indoline-1-carboxamido)propanoic acid], the IC50 amounted to 4.8 ± 3.3 µM.

As to `COc1cccc(N2CCN(S(=O)(=O)c3ccc4c(c3)CCN4C(=O)CCC(=O)O)CC2)c1` [XW2-038F, 4-(5-(4-(3-Methoxyphenyl)piperazin-1-ylsulfonyl)indolin-1-yl)-4-oxobutanoic acid], 4.7 ± 4.4 µM corresponded to half-maximal inhibition (IC50).

On to `CCOC(=O)C(C)NC(=O)N1CCc2cc(S(=O)(=O)N3CCN(c4cccc(Cl)c4)CC3)ccc21` (stereo not shown) [JHE-02-010B, Ethyl 2-(5-(4-(3-chlorophenyl)piperazin-1-ylsulfonyl)indoline-1-carboxamido)propanoate], for which the IC50 worked out at 5.1 ± 2.7 µM.

The molecule `CCCC(=O)N1CCc2cc(S(=O)(=O)N3CCN(c4cccc(Cl)c4)CC3)ccc21` [JHE-02-033A, 1-(5-(4-(3-Chlorophenyl)piperazin-1-ylsulfonyl)indolin-1-yl)butan-1-one] displayed an IC50 of 7.8 ± 2.1 µM.

The molecule `Cc1ccc(Cl)cc1N1CCN(S(=O)(=O)c2ccc3c(c2)CCN3C(=O)CCC(=O)O)CC1` [XW2-125B, 4-(5-(4-(5-Chloro-2-methylphenyl)piperazin-1-ylsulfonyl)indolin-1-yl)-4-oxobutanoic acid] came in with an IC50 of 1.5 µM.

Molecule `O=C(O)CCC(=O)N1CCc2cc(S(=O)(=O)N3CCN(c4cccc(Cl)c4)CC3)ccc21` [XW2-038H, 4-(5-(4-(3-Chlorophenyl)piperazin-1-ylsulfonyl)indolin-1-yl)-4-oxobutanoic acid] had a concentration for half-maximal inhibition (IC50) of 0.7 ± 0.3 µM. Compared with the last molecule, the IC50 is about 2.1-fold lower.

Molecule `O=C(O)CCCC(=O)N1CCc2cc(S(=O)(=O)N3CCN(c4cccc(Cl)c4)CC3)ccc21` [JHE-01-129B, 5-(5-(4-(3-Chlorophenyl)piperazin-1-ylsulfonyl)indolin-1-yl)-5-oxopentanoic acid] returned an IC50 of 2.8 ± 0.7 µM.

As for `CCOC(=O)CCNC(=O)N1CCc2cc(S(=O)(=O)N3CCN(c4cccc(Cl)c4)CC3)ccc21` [JHE-02-010A, Ethyl 3-(5-(4-(3-chlorophenyl)piperazin-1-ylsulfonyl)indoline-1-carboxamido)propanoate], the IC50 worked out at 9.3 ± 2.2 µM.

In the case of `O=C(Nc1cccc(Cl)c1)N1CCc2cc(S(=O)(=O)N3CCN(c4cccc(Cl)c4)CC3)ccc21` [JHE-02-032A, N-(3-Chlorophenyl)-5-(4-(3-chlorophenyl)piperazin-1-ylsulfonyl)indoline-1-carboxamide], the IC50 was 8.3 ± 3.4 µM.

In turn, `CCC(C)C(NC(=O)N1CCc2cc(S(=O)(=O)N3CCN(c4cccc(Cl)c4)CC3)ccc21)C(=O)OC` (stereo not shown) [JHE-02-029A, Methyl 2-(5-(4-(3-chlorophenyl)piperazin-1-ylsulfonyl)indoline-1-carboxamido)-3-methylpentanoate] registered an IC50 of 12.7 ± 0.7 µM.

Turning to `O=C(Nc1ccccc1)N1CCc2cc(S(=O)(=O)N3CCN(c4cccc(Cl)c4)CC3)ccc21` [JF033, 5-(4-(3-Chlorophenyl)piperazin-1-ylsulfonyl)-N-phenylindoline-1-carboxamide], half-maximal inhibition (IC50) required 11.7 ± 1.4 µM.

Regarding `CC(C)C(NC(=O)N1CCc2cc(S(=O)(=O)N3CCN(c4cccc(Cl)c4)CC3)ccc21)C(=O)O` (stereo not shown) [JHE-02-017C, 2-(5-(4-(3-Chlorophenyl)piperazin-1-ylsulfonyl)indoline-1-carboxamido)-3-methylbutanoic acid], the IC50 came to 4.4 ± 1.9 µM.

Molecule `O=C(Nc1ccccc1Cl)N1CCc2cc(S(=O)(=O)N3CCN(c4cccc(Cl)c4)CC3)ccc21` [JHE-02-065B, N-(2-Chlorophenyl)-5-(4-(3-chlorophenyl)piperazin-1-ylsulfonyl)indoline-1-carboxamide] had an IC50 of 3.2 ± 0.5 µM.

On to `O=C(O)C(Cc1ccccc1)NC(=O)N1CCc2cc(S(=O)(=O)N3CCN(c4cccc(Cl)c4)CC3)ccc21` (stereo not shown) [JHE-02-019B, 2-(5-(4-(3-Chlorophenyl)piperazin-1-ylsulfonyl)indoline-1-carboxamido)-3-phenylpropanoic acid], for which half-maximal inhibition (IC50) was put at 5.4 ± 2.7 µM.

`COc1ccc(C(=O)N2CCc3cc(S(=O)(=O)N4CCN(c5cccc(Cl)c5)CC4)ccc32)cc1` [JF028, (5-(4-(3-Chlorophenyl)piperazin-1-ylsulfonyl)indolin-1-yl)(4-methoxyphenyl)methanone] had an IC50 of 6.3 ± 2.9 µM.

In turn, `CCOC(=O)C(Cc1ccccc1)NC(=O)N1CCc2cc(S(=O)(=O)N3CCN(c4cccc(Cl)c4)CC3)ccc21` (stereo not shown) [JHE-02-014, Ethyl 2-(5-(4-(3-chlorophenyl)piperazin-1-ylsulfonyl)indoline-1-carboxamido)-3-phenylpropanoate] showed an IC50 of 6.9 ± 4.2 µM.

With `O=C(Nc1ccccc1C(F)(F)F)N1CCc2cc(S(=O)(=O)N3CCN(c4cccc(Cl)c4)CC3)ccc21` [JF040, 5-(4-(3-Chlorophenyl)piperazin-1-ylsulfonyl)-N-(2-(trifluoromethyl)phenyl)indoline-1-carboxamide], the IC50 came to 9 ± 1.7 µM.

Molecule `CC(NC(=O)N1CCc2cc(S(=O)(=O)N3CCN(c4cccc(Cl)c4)CC3)ccc21)C(=O)O` (stereo not shown) [JHE-02-017B, 2-(5-(4-(3-Chlorophenyl)piperazin-1-ylsulfonyl)indoline-1-carboxamido)propanoic acid] gave an IC50 of 6.4 ± 0.5 µM.

With `COCC(=O)N1CCc2cc(S(=O)(=O)N3CCN(c4cccc(Cl)c4)CC3)ccc21` [JHE-01-169, 1-(5-(4-(3-Chlorophenyl)piperazin-1-ylsulfonyl)indolin-1-yl)-2-methoxyethanone], the midpoint of inhibition, the IC50, lay at 9.6 ± 2.4 µM.

Take `O=C(O)CCC(=O)N1CCc2cc(S(=O)(=O)N3CCN(c4ccccc4)CC3)ccc21` [XW2-038A, 4-oxo-4-(5-(4-Phenylpiperazin-1-ylsulfonyl)indolin-1-yl)butanoic acid]: the 50% inhibitory concentration (IC50) stood at 14.8 ± 7.3 µM.

For the molecule `O=C(O)CCC(=O)N1CCc2cc(S(=O)(=O)N3CCN(c4cc(Cl)cc(Cl)c4)CC3)ccc21` [XW2-124B, 4-(5-(4-(3,5-Dichlorophenyl)piperazin-1-ylsulfonyl)indolin-1-yl)-4-oxobutanoic acid], the half-maximal inhibitory concentration (IC50) worked out at 4.5 ± 1.2 µM.

On to `O=C(O)CCC(=O)N1CCc2cc(S(=O)(=O)N3CCN(c4cccc(Cl)c4Cl)CC3)ccc21` [XW2-038G, 4-(5-(4-(2,3-Dichlorophenyl)piperazin-1-ylsulfonyl)indolin-1-yl)-4-oxobutanoic acid], for which inhibition was half-maximal at 144 ± 89.5 µM (IC50). Compared with the last molecule, the IC50 is about 32-fold higher.

The molecule `O=C(c1ccc(Cl)cc1Cl)N1CCc2cc(S(=O)(=O)N3CCN(c4cccc(Cl)c4)CC3)ccc21` [JF024, (5-(4-(3-Chlorophenyl)piperazin-1-ylsulfonyl)indolin-1-yl)(2,4-dichlorophenyl)methanone] displayed an IC50 of 7.6 ± 1.3 µM.

`O=C(Cc1ccc(Cl)cc1)N1CCc2cc(S(=O)(=O)N3CCN(c4cccc(Cl)c4)CC3)ccc21` [JHE-02-063B, 2-(4-Chlorophenyl)-1-(5-(4-(3-chlorophenyl)piperazin-1-ylsulfonyl)indolin-1-yl)ethanone]: the IC50 stood at 8 ± 1.9 µM.

The molecule `O=C(O)C(=O)N1CCc2cc(S(=O)(=O)N3CCN(c4cccc(Cl)c4)CC3)ccc21` [JHE-01-155B, 2-(5-(4-(3-Chlorophenyl)piperazin-1-ylsulfonyl)indolin-1-yl)-2-oxoacetic acid] registered an IC50 of 4.8 ± 2.8 µM.

`O=C(Nc1ccc(F)cc1)N1CCc2cc(S(=O)(=O)N3CCN(c4cccc(Cl)c4)CC3)ccc21` [JF038, 5-(4-(3-Chlorophenyl)piperazin-1-ylsulfonyl)-N-(4-fluorophenyl)indoline-1-carboxamide] gave an IC50 of 12.6 ± 5.4 µM.

In the case of `CC(C)CC(=O)N1CCc2cc(S(=O)(=O)N3CCN(c4cccc(Cl)c4)CC3)ccc21` [JHE-02-033B, 1-(5-(4-(3-Chlorophenyl)piperazin-1-ylsulfonyl)indolin-1-yl)-3-methylbutan-1-one], the IC50 was 20.7 ± 10.8 µM.

These data come from patent US9174969B2, “Indoline scaffold SHP-2 inhibitors and cancer treatment method” (UNIVERSITY OF SOUTH FLORIDA, priority 2008, dated 2015).
